According to publication PMC7918738, “Microtubule Destabilizing Sulfonamides as an Alternative to Taxane-Based Chemotherapy” (International Journal of Molecular Sciences, 2021):

What was measured:
[1] = system: HeLa (cervix epithelioid carcinoma); assay: Antiproliferative activity against HeLa (XTT colorimetric method); format: cell-based; settings: Homo sapiens, 72 h treatment
Protocol: (§1) The in vitro antiproliferative activity of MDS at 1 µM after 72 h treatments was evaluated by a colorimetric method against the human tumor cell lines HeLa (cervix epithelioid carcinoma) and MCF7 (breast adenocarcinoma). Compounds showing more than 40% inhibition at 1 µM in at least three independent assays were evaluated in a range of concentrations between 0.1 nM and 10 µM for the determination of half-maximal inhibitory concentrations (IC50) (Table 1). Paclitaxel, CA-4, and ABT-751 were used as references.
(§2) MCF7 (human breast carcinoma), SKOV-3 (human ovarian carcinoma), OVCAR-3 (human ovarian carcinoma), OVCAR-8 (human ovarian carcinoma), and HeLa (human cervical carcinoma) cell lines were cultured in Dulbecco’s Modified Eagle’s Medium (DMEM) (Gibco, Thermo Fischer Scientific) containing 10% (v/v) heat-inactivated fetal bovine serum (HIFBS) (Lonza-Cambrex, Karlskoga, Sweden), 2 mM L-glutamine (Lonza-Cambrex, Karlskoga, Sweden), 100 μg/mL streptomycin, and 100 IU/mL penicillin (Lonza-Cambrex) at 37 °C in humidified 95% air and 5% CO2. HT-29 (human colon carcinoma), IGROV-1 (human ovarian carcinoma), and A2780 (human ovarian carcinoma) cell lines were cultured in RPMI 1640 medium (Gibco, Thermo Fischer Scientific) supplemented with 10% HIFBS, 100 μg/mL streptomycin, and 100 IU/mL penicillin at 37 °C in humidified 95% air and 5% CO2 atmosphere. The presence of mycoplasma was routinely checked with MycoAlert kit (Lonza-Cambrex) and only mycoplasma-free cells were used in the experiments. Ovarian tumor cell lines were originally acquired from Dr Atanasio Pandiella from Centro de Investigación del Cáncer (CIC), Salamanca, Spain. HeLa, HT-29 and MCF7 tumor cell lines were provided by Dr Faustino Mollinedo from Centro de Investigaciones Biológicas Margarita Salas, Madrid, Spain.
(§3) MCF7, HeLa, and HT-29 cell proliferation, when treated with the corresponding compounds, were determined using the XTT (sodium 3’-[1(phenylaminocarbonyl)-3,4-tetrazolium]-bis(4-methoxy-6-nitro)-benzenesulfonic acid hydrate) cell proliferation kit (Roche Molecular Biochemicals, Mannheim, Germany). A freshly prepared mixture of XTT labeling reagent with 0.02% (v/v) PMS (N-methyl-dibenzopyrazine methyl sulfate) electron coupling reagent was added to cells (50 µL/well in 96-well plates, total volume of 160 µL/well). Cells were incubated under standard culture conditions for 4 h (MCF7 and HeLa) or 6 h (HT-29). The absorbance of the formazan product generated was measured at 450 nm using a multi-well plate reader. SKOV-3, OVCAR-3, OVCAR-8, IGROV-1, A-2780 cell proliferation, when treated with the corresponding compound, were determined using MTT (3-(4,5-dimethylthiazol-2-yl)-2,5-diphenyl-2H-tetrazolium bromide) (Sigma-Aldrich, St. Louis, MO, USA). MTT in Phosphate Buffer Saline (PBS) (5 mg/ml) was added to cells (110 µL/well in 24-well plates, total volume of 1110 µL/well). After 1 hour of incubation, the medium was aspirated, and formazan violet crystals were dissolved in dimethyl sulfoxide (DMSO) (500 µL/well). Absorbance was measured at 570 nm in a plate reader (Ultra Evolution, Tecan, Männedorf, Suiza). To determine cell viability, cells in exponential growth phase were seeded (100 µL/well in 96-well plates and 1000 µL/well in 24-well plates) with appropriate cell line concentration (1.5·10^4 cells/mL for MCF7 and HeLa, 3·10^4 cells/mL for HT-29, and 1·10^4 cells/mL for SKOV-3, OVCAR-3, OVCAR-8, IGROV-1, and A-2780) in complete RPMI 1640 or DMEM medium at 37°C and 5% CO2 atmosphere. After 24 h incubation, to allow cells to attach to the plates, all compounds were added at 1 µM concentration and the effect on the proliferation was evaluated 72 h post-treatment. Compounds showing antiproliferative effects at tested concentration were selected for IC50 calculation (50% inhibitory concentration with respect to the untreated controls) from 10^−5 to 10^−10 M concentration. Non-linear curves fitting the experimental data were carried out for each compound. […]

[2] = system: MCF7 (breast adenocarcinoma); assay: Antiproliferative activity against MCF7 (XTT colorimetric method); format: cell-based; settings: Homo sapiens, 72 h treatment
Protocol: as §1, §2, §3

[3] = system: tubulin (microtubular protein isolated from calf brain); assay: Tubulin Polymerization Inhibition (TPI) assay, turbidity; format: biochemical; settings: 1.5 mg/mL microtubular protein; for TPI % 10 µM: compound at 10 µM
Protocol: The effect of all the synthesized compounds on the in vitro tubulin polymerization was evaluated at 10 µM. All the compounds that inhibited polymerization more than 30% were also assayed at 20 µM. IC50 values were calculated for those compounds inhibiting tubulin polymerization by at least 50% at 20 µM (Table 1 and Supplemental Figure S2).
Microtubular protein was isolated from calf brain according to the modified Shelanski method by two cycles of temperature-dependent assembly/disassembly and stored at −80 °C. Before each use, protein concentration was determined by the Bradford method taking BSA as standard.
Tubulin polymerization was monitored using a Helios α spectrophotometer by measuring the increase in turbidity at 450 nm, caused by a shift from 4 °C to 37 °C, which allows the in vitro microtubular protein to depolymerize and polymerize, respectively. The assay was carried out in quartz cuvettes containing 1.5 mg/mL microtubular protein and the ligand (except for control cuvette with only DMSO at the same concentration) in a mixture of 0.1 M MES buffer, 1 mM EGTA, 1 mM MgCl2, 1 mM β-ME, and 1.5 mM GTP at pH 6.7 (final volume 500 µL). Cuvettes were preincubated at 20 °C for 30 min, to allow ligand binding to tubulin, and subsequently cooled on ice for 10 min. Then, the experiment starts at 4 °C to establish the initial baseline. The assembly process was initiated by a temperature shift to 37 °C and the turbidity produced by tubulin polymerization can be measured by an absorbance increase. After reaching a stable plateau, the temperature was switched back to 4 °C to return to the initial absorption values (to confirm the reversible nature of the monitored process and to determine whether or not the microtubular tubular protein has stabilized). The difference in amplitude between the stable plateau and the initial baseline of the curves was taken as the degree of tubulin polymerization for each experiment. Comparison with control curves under identical conditions but without ligands yielded TPI as a percentage value. All compounds were tested at 10 µM concentration. Compounds that inhibited tubulin polymerization by at least 30% at 10 µM were tested at 20 µM. IC50 values were calculated for compounds that inhibit tubulin polymerization by more than 50% at 20 µM. Compounds were dissolved in DMSO, and the final solvent concentration never exceeded 4% (v/v), which has been reported not to interfere with the assembly process. All the measurements were carried out in at least two independent experiments using microtubular protein from different preparations.

SMILES | IC50 [1] | IC50 [2] | IC50 [3] | TPI % 10 µM [3]
COc1cc(N(Cc2ccccc2)S(=O)(=O)c2ccc(N(C)C)cc2)cc(OC)c1OC [Compound 35a] | 330 nM | 100 nM | 5300 nM | 72%
COc1ccc(S(=O)(=O)N(C)c2cc(OC)c(OC)c(OC)c2N)cc1 [Compound 13] | > 1000 nM | > 1000 nM | > 20000 nM | 0%
COc1ccc(S(=O)(=O)N(C(C)=O)c2cc(OC)c(OC)c(OC)c2)cc1 [Compound 5] | 287 nM | 270 nM | > 20000 nM | 0%
COc1cc(NS(=O)(=O)c2ccc(NC=O)cc2)cc(OC)c1OC [Compound 36] | > 1000 nM | > 1000 nM | > 20000 nM | 0%
COc1ccc(S(=O)(=O)n2nnc3c(OC)c(OC)c(OC)cc32)cc1 [Compound 23] | > 1000 nM | > 1000 nM | > 20000 nM | 0%
CNc1cc(S(=O)(=O)N(C)c2cc(OC)c(OC)c(OC)c2)ccc1OC [Compound 48a] | 440 nM | 1190 nM | > 20000 nM | 2%
COc1cc(N(CC#N)S(=O)(=O)c2ccc(N(C)C)cc2)cc(OC)c1OC [Compound 32] | 55 nM | 120 nM | > 20000 nM | 17%
COc1ccc(S(=O)(=O)N(C)c2cc(OC)c(OC)c(OC)c2)cc1N(C)C [Compound 48b] | > 1000 nM | > 1000 nM | > 20000 nM | 0%
COc1cc(NS(=O)(=O)c2ccc([N+](=O)[O-])cc2)cc(OC)c1OC [Compound 25] | > 1000 nM | > 1000 nM | > 20000 nM | 0%
COc1ccc(S(=O)(=O)Nc2cc(OC)c(OC)c(OC)c2N(C)C)cc1 [Compound 18] | > 1000 nM | > 1000 nM | > 20000 nM | 0%
COc1ccc(S(=O)(=O)N(C(=O)OCc2ccccc2)c2cc(OC)c(OC)c(OC)c2)cc1 [Compound 10] | > 1000 nM | > 1000 nM | > 20000 nM | 11%
COc1ccc(S(=O)(=O)Nc2cc(OC)c(OC)c(OC)c2)cc1[N+](=O)[O-] [Compound 40] | > 1000 nM | > 1000 nM | > 20000 nM | 0%
COc1cc(N(C(C)=O)S(=O)(=O)c2ccc(N(C)C)cc2)cc(OC)c1OC [Compound 31] | 183 nM | 135 nM | 14000 nM | 38%
CCN(c1cc(OC)c(OC)c(OC)c1)S(=O)(=O)c1ccc(OC)cc1 [Compound 3] | 99 nM | 87 nM | > 20000 nM | 25%
COc1ccc(S(=O)(=O)Nc2cc(OC)c(OC)c(OC)c2NC(C)=O)cc1 [Compound 15] | > 1000 nM | > 1000 nM | > 20000 nM | 0%
CNc1ccc(S(=O)(=O)N(C)c2cc(OC)c(OC)c(OC)c2)cc1 [Compound 38] | 44 nM | 61 nM | 10000 nM | 47%
COc1cc(NS(=O)(=O)c2ccc(N(C)C)cc2)cc(OC)c1OC [Compound 28] | 230 nM | 173 nM | > 20000 nM | 0%
COc1ccc(S(=O)(=O)Nc2cc(OC)c(OC)c(OC)c2N)cc1 [Compound 12] | > 1000 nM | > 1000 nM | > 20000 nM | 0%
COc1ccc(/C=C\c2cc(OC)c(OC)c(OC)c2)cc1O [Combretastatin A-4, reference compound] | 2 nM | 1 nM | […] | […]
COc1ccc(S(=O)(=O)Nc2cc(OC)c(OC)c(OC)c2NC=O)cc1 [Compound 17] | > 1000 nM | > 1000 nM | > 20000 nM | 4%

More lines, main results first:

IC50 [1] | IC50 [2] | IC50 [3] | SMILES | TPI % 10 µM [3]
66 nM | 81 nM | > 20000 nM | CCN(c1cc(OC)c(OC)c(OC)c1)S(=O)(=O)c1ccc(N(C)C)cc1 [Compound 30] | 45%
> 1000 nM | > 1000 nM | > 20000 nM | COc1cc(N(C)S(=O)(=O)c2ccc(N)cc2)cc(OC)c1OC [Compound 27] | 0%
> 1000 nM | > 1000 nM | > 20000 nM | COc1cc(NS(=O)(=O)c2ccc(N)cc2)cc(OC)c1OC [Compound 26] | 0%
260 nM | 96 nM | > 20000 nM | COc1ccc(S(=O)(=O)Nc2cc(OC)c(OC)c(OC)c2)cc1N [Compound 41] | 15%
23 nM | 26 nM | 12000 nM | COc1ccc(S(=O)(=O)N(C)c2cc(OC)c(OC)c(OC)c2)cc1N [Compound 42] | 41%
> 1000 nM | > 1000 nM | > 20000 nM | COc1ccc(S(=O)(=O)Nc2cc(OC)c(OC)c(OC)c2NCN(c2cc(OC)c(OC)c(OC)c2N)S(=O)(=O)c2ccc(OC)cc2)cc1 [Compound 14] | 0%
217 nM | 335 nM | > 20000 nM | CCOC(=O)CN(c1cc(OC)c(OC)c(OC)c1)S(=O)(=O)c1ccc(OC)cc1 [Compound 7] | 21%
> 1000 nM | > 1000 nM | > 20000 nM | COc1ccc(S(=O)(=O)N(C)c2cc(OC)c(OC)c(OC)c2NC(C)=O)cc1 [Compound 16] | 0%
210 nM | 48 nM | > 20000 nM | CCOC(=O)CNc1cc(S(=O)(=O)N(C)c2cc(OC)c(OC)c(OC)c2)ccc1OC [Compound 46] | 13%
